From patent publication US6583299B1, “α-amino-β-sulfonyl hydroxamic acid compounds” (priority 1999, dated 2003)

Assays:
MMP-1 = molecular target: T1, MMP-1 (Homo sapiens, UniProt P03956); assay: In vitro metalloprotease inhibition, fluorogenic MCA peptide substrate; format: biochemical; settings: recombinant human enzyme, APMA-activated, room temperature, pH 7.5
T1 construct: host or cells: transfected HT-1080 cells
T1 sequence (P03956 100-469): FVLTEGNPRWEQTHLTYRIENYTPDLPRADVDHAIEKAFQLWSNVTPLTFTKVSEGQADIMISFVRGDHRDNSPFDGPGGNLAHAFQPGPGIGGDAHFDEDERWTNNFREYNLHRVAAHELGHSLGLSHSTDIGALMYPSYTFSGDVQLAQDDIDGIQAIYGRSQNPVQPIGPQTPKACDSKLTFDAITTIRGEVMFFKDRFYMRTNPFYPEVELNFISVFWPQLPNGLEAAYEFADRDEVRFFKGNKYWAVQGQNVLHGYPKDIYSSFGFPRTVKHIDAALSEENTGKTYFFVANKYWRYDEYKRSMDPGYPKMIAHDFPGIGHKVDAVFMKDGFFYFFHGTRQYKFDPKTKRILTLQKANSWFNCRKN
Experimental: Briefly, 4-aminophenylmercuric acetate (APMA) or trypsin-activated MMPs were incubated with various concentrations of the inhibitor compound at room temperature for 5 minutes.
The expressed enzyme was purified first over a heparin agarose column and then over a chelating zinc chloride column. The proenzyme was activated by APMA for use in the assay.
MMP-1 expressed in transfected HT-1080 cells was provided by Dr. Harold Welgus of Washington University, St. Louis, Mo. The enzyme was also activated using APMA and was then purified over a hydroxamic acid column.
The enzyme substrate is a methoxycoumarin-containing polypeptide having the following sequence:
MCA-ProLeuGlyLeuDpaAlaArgNH2, wherein MCA is methoxycoumarin and Dpa is 3-(2,4-dinitrophenyl)-L-2,3-diaminopropionyl alanine.
The assayed inhibitor compound in DMSO/buffer solution was compared to an equal amount of DMSO/buffer with no inhibitor as control using Microfluor™ White Plates (Dynatech). The inhibitor or control solution was maintained in the plate for 10 minutes and the substrate was added to provide a final concentration of 4 μM.
Inhibition was measured as a reduction in fluorescent intensity as a function of inhibitor concentration, using a Perkin Elmer L550 plate reader. The IC50 values were calculated from those values.

MMP-13 = molecular target: T2, MMP-13 (Homo sapiens, UniProt P45452); assay: as above; format: biochemical; settings: recombinant human enzyme, APMA-activated, room temperature, pH 7.5; read-out: MMP-13 IC50
T2 construct: made in house; host or cells: baculovirus / insect cells

[1] = test system: human moncytic line U-937; assay: Tumor necrosis factor assay: PMA-stimulated TNF release, TNFα ELISA; format: cell-based; settings: U-937 cells; for inhibition at 10 µM: compound at 10 μM, read-out: Per Cent Inhibition of TNF? Release [average]
Experimental: The cells used in the assay are the human moncytic line U-937 (ATCC CRL-1593). The cells are grown RPMI w/10% FCS and PSG supplement (R-10) and are not permitted to overgrow. The assay is carried out as follows:
1. Count, then harvest cells by centrifugation. Resuspend the pellet in R-10 supplement to a concentration of 1.540×10^6 cells/mL.
2. Add test compound in 65 μL R-10 to the appropriate wells of a 96-well flat bottom tissue culture plate. The initial dilution from a DMSO stock (100 mM compound) provides a 400 μM solution, from which five additional three-fold serial dilutions are made.
3. The counted, washed and resuspended cells (200,000 cells/well) in 130 μL are added to the wells.
4. Incubation is for 45 minutes to one hour at 37° C. in 5% CO2 in a water saturated container.
5. R-10 (65 μL)containing 160 ng/mL PMA (Sigma) is added to each well. 6. The test system is incubated at 37° C. in 5% CO2 overnight (18-20 hours) under 100% humidity.
7. Supernatant, 150 μL, is carefully removed from each well for use in the ELISA assay.
Coat Immulon® 2 plates with 0.1 mL/well of 1 ug/mL Genzyme mAb in 0.1 M NaHCO3 pH 8.0 buffer overnight (about 18-20 hours) at 4° C., wrapped tightly in Saran® wrap.
Wash wells thoroughly 4× with wash buffer and completely remove all wash buffer. Add 0.1 mL/well of either samples or rhTNFα standards. Dilute samples if necessary in appropriate diluent (e.g. tissue culture medium). Dilute standard in same diluent. Standards and samples should be in triplicates.
Wash plates as above. Add 0.1 mL/well of 1:200 dilution of Genzyme rabbit anti-hTNFα.
Repeat wash. Add 0.1 mL/well of 1 μg/mL Jackson goat anti-rabbit IgG (H+L)-peroxidase.
Repeat wash. Add 0.1 mL/well of peroxide-ABTS solution.

[2] = test system: solid tumor cancers (colorectal, pancreatic, ovarian, prostate); settings: cited from earlier work
MMP-2 = molecular target: T3, MMP-2 (Homo sapiens, UniProt P08253); assay: In vitro metalloprotease inhibition, fluorogenic MCA peptide substrate; format: biochemical; settings: room temperature, pH 7.5
T3 sequence (P08253 110-660): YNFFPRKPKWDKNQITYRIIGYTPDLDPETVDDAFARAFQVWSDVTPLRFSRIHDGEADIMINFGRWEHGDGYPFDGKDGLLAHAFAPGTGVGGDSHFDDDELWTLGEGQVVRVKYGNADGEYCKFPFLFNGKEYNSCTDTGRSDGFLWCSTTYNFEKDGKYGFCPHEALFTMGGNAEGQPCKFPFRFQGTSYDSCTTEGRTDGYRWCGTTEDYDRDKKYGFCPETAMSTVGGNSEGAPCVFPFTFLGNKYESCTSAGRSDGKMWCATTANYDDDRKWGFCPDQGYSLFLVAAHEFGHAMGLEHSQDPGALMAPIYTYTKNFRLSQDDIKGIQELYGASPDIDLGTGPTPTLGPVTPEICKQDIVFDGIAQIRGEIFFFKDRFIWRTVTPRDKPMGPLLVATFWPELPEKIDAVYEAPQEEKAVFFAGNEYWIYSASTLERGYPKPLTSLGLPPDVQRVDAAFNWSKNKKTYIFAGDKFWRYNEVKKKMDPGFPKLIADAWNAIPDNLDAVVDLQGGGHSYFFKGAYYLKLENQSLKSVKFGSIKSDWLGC
Experimental: Briefly, 4-aminophenylmercuric acetate (APMA) or trypsin-activated MMPs were incubated with various concentrations of the inhibitor compound at room temperature for 5 minutes. […] The assayed inhibitor compound in DMSO/buffer solution was compared to an equal amount of DMSO/buffer with no inhibitor as control using MicrofluorTM White Plates (Dynatech). The inhibitor or control solution was maintained in the plate for 10 minutes and the substrate was added to provide a final concentration of 4 μM. […] Inhibition was measured as a reduction in fluorescent intensity as a function of inhibitor concentration, using a Perkin Elmer [MUT] plate reader. The IC50 values were calculated from those values.

Structure (SMILES): CC(=O)NC(CS(=O)(=O)c1ccc(Br)cc1)C(=O)NO (stereo not shown) [Example 5, N-Hydroxy-3-[(4-bromophenyl)sulfonyl]-2-[(methylcarbonyl)amino]propanamide]
- IC50 (MMP-1): 100 nM
- IC50 (MMP-13): 200 nM
- IC50 [1]: > 50000 nM
- inhibition at 10 µM [1]: -10.8%

Structure (SMILES): COc1ccc(S(=O)(=O)CC(NC(C)=O)C(=O)NO)cc1 (stereo not shown) [Example 24]
- IC50 (MMP-1): 5200 nM
- IC50 (MMP-13): 650 nM
- IC50 [1]: > 50000 nM

Structure (SMILES): CNC(=O)[C@@H](NC(=O)[C@H](CC(C)C)[C@H](O)C(=O)NO)C(C)(C)C [marimastat]
- Most common drug-related toxicity ([2]; clinical trials, Phase I/II): musculoskeletal pain and stiffness
- Effect on cancer-specific antigens used as surrogate markers for biological activity ([2]; patients with advanced, rapidly progressive, treatment-refractory solid tumor cancers): dose-related reduction in the rise of cancer-specific antigens

Structure (SMILES): COc1ccc(S(=O)(=O)CC(N)C(=O)NO)cc1 (stereo not shown) [Example 22]
- IC50 (MMP-1): 250 nM
- IC50 (MMP-13): 15 nM
- IC50 [1]: > 29000 nM

Structure (SMILES): COc1ccc(S(=O)(=O)CC(NC(=O)CCC(=O)OCc2ccccc2)C(=O)NO)cc1 (stereo not shown) [Example 7]
- IC50 (MMP-1): 200 nM
- IC50 (MMP-13): 2.5 nM
- IC50 [1]: > 50000 nM

Structure (SMILES): COc1ccc(S(=O)(=O)CC(NC(C)=O)C(=O)NO)cc1OC (stereo not shown) [Example 23]
- IC50 (MMP-1): > 10000 nM
- IC50 (MMP-13): 1500 nM
- IC50 [1]: > 50000 nM

Structure (SMILES): COc1ccc(S(=O)(=O)CC(NC(=O)CCC(=O)O)C(=O)NO)cc1 (stereo not shown) [Example 8]
- IC50 (MMP-1): 600 nM
- IC50 (MMP-13): 60 nM
- IC50 [1]: > 50000 nM

Structure (SMILES): CCN(CC)c1ccc(C(=O)N[C@@H](CS(=O)(=O)c2ccc(Oc3ccccc3)cc2)C(=O)NO)cc1 [Example 53]
- IC50 (MMP-1): 8100 nM
- IC50 (MMP-2): 0.3 nM
- IC50 (MMP-13): 2.1 nM

Structure (SMILES): CC(=O)NC(CS(=O)(=O)c1ccc(Sc2ccccc2)cc1)C(=O)NO (stereo not shown) [Example 15b, 2-(Acetylamino)-N-hydroxy-3-[[4-(phenylthio)phenyl]sulfonyl]propanamide]
- IC50 (MMP-1): > 10000 nM
- IC50 (MMP-2): 2.2 nM
- IC50 (MMP-13): 5.9 nM

Structure (SMILES): CN(C(=O)OC(C)(C)C)C(C)(CS(=O)(=O)c1ccc(NC(=O)c2ccccc2)cc1)C(=O)NO (stereo not shown) [Example 63]
- IC50 (MMP-1): 3050 nM
- IC50 (MMP-2): 1 nM
- IC50 (MMP-13): 21.5 nM

Structure (SMILES): Cc1ccc(S(=O)(=O)NC(CS(=O)(=O)c2ccc(Oc3ccccc3)cc2)C(=O)NO)cc1 (stereo not shown) [Example 12c]
- IC50 (MMP-1): 400 nM
- IC50 (MMP-2): < 0.1 nM
- IC50 (MMP-13): 0.6 nM

Structure (SMILES): CC(=O)N1CCC(C(=O)NC(CS(=O)(=O)c2ccc(Oc3ccccc3)cc2)C(=O)NO)CC1 (stereo not shown) [Example 59]
- IC50 (MMP-1): 580 nM
- IC50 (MMP-2): 0.4 nM
- IC50 (MMP-13): 0.8 nM

Structure (SMILES): O=C(N[C@@H](CS(=O)(=O)c1ccc(Oc2ccccc2)cc1)C(=O)NO)c1ccnc2ccccc12 [Example 50]
- IC50 (MMP-1): 316 nM
- IC50 (MMP-2): 0.3 nM
- IC50 (MMP-13): 0.3 nM

Structure (SMILES): COc1ccc(S(=O)(=O)CC(NC(=O)[C@@H](C)NC(=O)OCc2ccccc2)C(=O)NO)cc1 (stereo partly shown) [Example 25]
- IC50 (MMP-1): 1 nM
- IC50 (MMP-13): 1 nM
- IC50 [1]: 14000 nM

Structure (SMILES): COc1ccc(CC(=O)NC(CS(=O)(=O)c2ccc(Sc3ccccc3)cc2)C(=O)NO)c(OC)c1 (stereo not shown) [Example 31]
- IC50 (MMP-1): 3000 nM
- IC50 (MMP-2): 0.8 nM
- IC50 (MMP-13): 0.4 nM

Structure (SMILES): O=C(N[C@@H](CS(=O)(=O)c1ccc(Oc2ccccc2)cc1)C(=O)NO)c1ccncc1 [Example 44]
- IC50 (MMP-1): 900 nM
- IC50 (MMP-2): 0.3 nM
- IC50 (MMP-13): 0.8 nM

Structure (SMILES): CC(=O)N(C)[C@@H](CS(=O)(=O)c1ccc(Oc2ccccc2)cc1)C(=O)NO [Example 43]
- IC50 (MMP-1): 90 nM
- IC50 (MMP-2): 0.2 nM
- IC50 (MMP-13): 0.2 nM

Structure (SMILES): COc1ccc(S(=O)(=O)CC(NC(=O)c2ccccc2)C(=O)NO)cc1 (stereo not shown) [Example 3, N-Hydroxy-3-[(4-methoxyphenyl)sulfonyl]-2-[(phenylcarbonyl)amino]propanamide]
- IC50 (MMP-1): 2000 nM
- IC50 (MMP-13): 25 nM
- inhibition at 10 µM [1]: 3.72%

Structure (SMILES): CN(C(=O)OC(C)(C)C)[C@H](CS(=O)(=O)c1ccc(Oc2ccccc2)cc1)C(=O)NO [Example 40]
- IC50 (MMP-1): 1600 nM
- IC50 (MMP-2): 0.3 nM
- IC50 (MMP-13): 0.3 nM

Structure (SMILES): CC(C)(C)OC(=O)N[C@@H](CS(=O)(=O)c1ccc(Oc2ccccc2)cc1)C(=O)NO [Example 33]
- IC50 (MMP-1): 500 nM
- IC50 (MMP-2): 0.2 nM
- IC50 (MMP-13): 0.3 nM

Structure (SMILES): CN(C(=O)Cc1ccncc1)[C@H](CS(=O)(=O)c1ccc(Oc2ccccc2)cc1)C(=O)NO [Example 47]
- IC50 (MMP-1): 258 nM
- IC50 (MMP-2): 0.6 nM
- IC50 (MMP-13): 45.3 nM

Structure (SMILES): CNC(CS(=O)(=O)c1ccc(NC(=O)c2ccccc2)cc1)C(=O)NO (stereo not shown) [Example 64]
- IC50 (MMP-1): 7000 nM
- IC50 (MMP-2): 0.4 nM
- IC50 (MMP-13): 8.1 nM

Structure (SMILES): CCCCC(=O)NC(CS(=O)(=O)c1ccc(OC)cc1)C(=O)NO (stereo not shown) [Example 4, N-Hydroxy-3-[(4-methoxyphenyl)sulfonyl]-2-[(butylcarbonyl)amino]propanamide]
- IC50 (MMP-1): 400 nM
- IC50 (MMP-13): 3.5 nM
- IC50 [1]: > 50000 nM
- inhibition at 10 µM [1]: -3.8%

Structure (SMILES): O=C(N[C@@H](CS(=O)(=O)c1ccc(Oc2ccccc2)cc1)C(=O)NO)c1ccncc1 [Example 46]
- IC50 (MMP-1): 1310 nM
- IC50 (MMP-2): 0.3 nM
- IC50 (MMP-13): 1.1 nM

Structure (SMILES): O=C(NC(CS(=O)(=O)c1ccc(Sc2ccccc2)cc1)C(=O)NO)c1ccncc1 (stereo not shown) [Example 28]
- IC50 (MMP-1): > 10000 nM
- IC50 (MMP-2): 5.5 nM
- IC50 (MMP-13): 13 nM
